# According to patent publication US8377967B2, “Piperidine derivative” (Nippon Zoki Pharmaceutical Co., Ltd., priority 2008, dated 2013):
# Where a name gives a salt, the structure may show the parent alone.
# Molecular target: human histamine H1 receptor (Homo sapiens, UniProt P35367)
# Test: In vitro human histamine H1 receptor binding experiment ([3H]pyrilamine)
# Conditions: HEK293A cells stably expressing human histamine H1 receptor, [3H]pyrilamine 3 nmol/L, room temperature 60 minutes
# Description: Recombinant human histamine H1 receptor plasmid (prepared by Invitrogen) was transfected to HEK293A cells with Lipofectamine 2000 (manufactured by Invitrogen). Cells stably expressing human histamine H1 receptor were screened with Geneticin (manufactured by Invitrogen). The cells were continued to be cultured using a Dulbecco's Modified Eagle Medium containing 10% fetal bovine serum, 0.1 mmol/L MEM Non-Essential Amino Acids Solution, 2 mmol/L L-glutamine and 0.7 mg/mL Geneticin in a 5% CO2 incubator at 37° C. The cells stably expressing human histamine H1 receptor were prepared using 50 mmol/L Tris-HCl (pH 7.5) (hereinafter referred to as buffer) containing 0.1% bovine serum albumin, so as to have a concentration of 3×10^6 cells/mL, to give a cell sample preparation. Fifty microliters of the buffer, 50 μl of a test substance solution at various concentrations, and 50 μL of [^3H]pyrilamine solution (final concentration: 3 nmol/L) were added to each of the wells on the 96-well plate, and stirred, and 100 μL of the cell sample preparation was then added thereto (at a concentration of 3×10^5 cells/well) to initiate the reaction.
# The cells were incubated at room temperature for 60 minutes, and then filtered on UniFilter GF/C plate (manufactured by Packard) immersed in 0.5% polyethyleneimine using a cell harvester (IH-110, manufactured by INNOTECH CORPORATION), to stop the reaction, and the plate was washed with the buffer. The plate after washing was sufficiently dried, and 20 μL of a scintillator (MaxiLight, manufactured by Hidex) was added thereto, and count per minute (cpm) was measured with a multi-labeled microplate reader (Plate Chameleo II, manufactured by Hidex). The nonspecific binding was cpm in a case where 30 μmol/L pyrilamine was added. The experiments were carried out at n=3, and at least repeated 3 times.
# Sequence of human histamine H1 receptor (P35367 whole entry): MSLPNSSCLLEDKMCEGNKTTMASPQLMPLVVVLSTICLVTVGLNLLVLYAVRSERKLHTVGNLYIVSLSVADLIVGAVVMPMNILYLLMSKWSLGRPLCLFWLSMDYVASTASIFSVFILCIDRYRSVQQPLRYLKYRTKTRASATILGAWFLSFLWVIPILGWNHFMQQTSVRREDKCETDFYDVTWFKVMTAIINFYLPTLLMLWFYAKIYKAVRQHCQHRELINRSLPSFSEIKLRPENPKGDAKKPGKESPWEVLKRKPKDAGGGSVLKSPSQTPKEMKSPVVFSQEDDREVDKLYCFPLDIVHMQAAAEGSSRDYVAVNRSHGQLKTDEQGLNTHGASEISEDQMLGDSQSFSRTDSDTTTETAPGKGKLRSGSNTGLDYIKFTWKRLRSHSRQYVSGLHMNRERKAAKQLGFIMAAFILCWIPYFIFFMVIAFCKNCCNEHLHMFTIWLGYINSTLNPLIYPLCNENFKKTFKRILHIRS
row,SMILES,IC50 [nM]
1,"CC(=O)NCc1cc2c(s1)CCc1ccccc1C2=C1CCN(C)CC1 [Compound 20, 2-Acetylaminomethyl-4-(1-methylpiperidin-4-ylidene)-9,10-dihydro-4H-1-thiabenzo[f]azulene hydrochloride]",15.2
2,"CCOC(=O)c1ccc2c(c1)C(=C1CCN(C)CC1)c1sccc1CC2 [Compound 115, Ethyl 4-(1-methylpiperidin-4-ylidene)-9,10-dihydro-4H-3-thiabenzo[f]azulene-6-carboxylate]",16.6
3,"CCOC(=O)c1cc2c(s1)CCc1ccccc1C2=C1CCN(CC)CC1 [Compound 103, Ethyl[4-(1-ethylpiperidin-4-ylidene)-9,10-dihydro-4H-1-thiabenzo[f]azulen-2-yl]carboxylate hydrochloride]",35.4
4,"CCOC(=O)CCc1cc2c(s1)CCc1ccccc1C2=C1CCN(C)CC1 [Compound 97, Ethyl 3-[4-(1-methylpiperidin-4-ylidene)-9,10-dihydro-4H-1-thiabenzo[f]azulen-2-yl]propionate]",16.9
5,"CC(OC(=O)OC1CCCCC1)OC(=O)c1cc2c(s1)CCc1ccccc1C2=C1CCN(C)CC1 (stereo not drawn) [Compound 176, 1-Cyclohexyloxycarbonyloxyethyl 4-(1-methylpiperidin-4-ylidene)-9,10-dihydro-4H-1-thiabenzo[f]azulene-2-carboxylate hydrochloride]",72.7
6,"CCN1CCC(=C2c3cc(CCCC(=O)OC)ccc3OCc3ccsc32)CC1 [Compound 141, Methyl 4-[4-(1-ethylpiperidin-4-ylidene)-4,10-dihydro-9-oxa-3-thiabenzo[f]azulen-6-yl]butyrate hydrochloride]",6.77
7,"CN1CCC(=C2c3cc(CO)ccc3CCc3sccc32)CC1 [Compound 104, 6-(2-Hydroxymethyl)-4-(1-methylpiperidin-4-ylidene)-9,10-dihydro-4H-1-thiabenzo[f]azulene]",4.8
8,"CONC(=O)c1cc2c(s1)CCc1ccccc1C2=C1CCN(C)CC1 [Compound 40, N-Methoxy [4-(1-methylpiperidin-4-ylidene)-9,10-dihydro-4H-1-thiabenzo[f]azulen-2-yl]carboxamide hydrochloride]",52.1
9,"CCOC(=O)c1cc2c(s1)CCc1ccccc1C2=C1CCN(CCO)CC1 [Compound 105, Ethyl {4-[1-(2-hydroxyethyl)piperidin-4-ylidene]-9,10-dihydro-4H-1-thiabenzo[f]azulen-2-yl}carboxylate]",50.2
10,"CCOC(=O)C=Cc1cc2c(s1)C(=O)Cc1ccccc1C2=C1CCN(C)CC1 [Compound 47, Ethyl 3-[4-(1-methylpiperidin-4-ylidene)-10-oxo-9,10-dihydro-4H-1-thiabenzo[f]azulen-2-yl]acrylate]",29.3
11,"CN1CCC(=C2c3ccccc3CCc3sc(C(N)=O)cc32)CC1 [Compound 31, [4-(1-Methylpiperidin-4-ylidene)-9,10-dihydro-4H-1-thiabenzo[f]azulen-2-yl]carboxamide]",16.4
12,"CC(C(=O)NCCO)c1ccc2c(c1)C(=C1CCN(C)CC1)c1sccc1CO2 (stereo not drawn) [Compound 64, N-(2-Hydroxyethyl)-{2-[4-(1-methylpiperidin-4-ylidene)-4,10-dihydro-9-oxa-3-thiabenzo[f]azulen-6-yl]}propionamide]",48.6
13,"C=Cc1cc2c(s1)CCc1ccccc1C2=C1CCN(C)CC1 [Compound 112, 2-Vinyl-4-(1-methylpiperidin-4-ylidene)-9,10-dihydro-4H-1-thiabenzo[f]azulene]",1.94
14,"COC(=O)Cc1ccc2c(c1)C(=C1CCN(C)CC1)c1ccsc1CO2 [Compound 116, Methyl[4-(1-methylpiperidin-4-ylidene)-4,10-dihydro-9-oxa-1-thiabenzo[f]azulen-6-yl]acetate hydrochloride]",3.95
15,"CCOCCN1CCC(=C2c3ccccc3CCc3sc(C(=O)OCC)cc32)CC1 [Compound 181, Ethyl 4-[1-(2-ethoxyethyl)piperidin-4-ylidene]-9,10-dihydro-4H-1-thiabenzo[f]azulene-2-carboxylate hydrochloride]",13
16,"CN1CCC(=C2c3ccccc3CCc3sc(C(=O)NCCF)cc32)CC1 [Compound 77, N-(2-Fluoroethyl)-{[4-(1-methylpiperidin-4-ylidene)-9,10-dihydro-4H-1-thiabenzo[f]azulen-2-yl]}carboxamide]",37.8
17,"COC(=O)Cc1ccc2c(c1)C(=C1CCN(CCNC(N)=O)CC1)c1sccc1CO2 [Compound 174, Methyl {4-[1-(2-ureidoethyl)piperidin-4-ylidene]-4,10-dihydro-9-oxa-3-thiabenzo[f]azulen-6-yl}acetate]",11
18,"CCOC(=O)C=Cc1cc2c(s1)CCc1ccccc1C2=C1CCN(CC)CC1 [Compound 158, Ethyl 3-[4-(1-ethylpiperidin-4-ylidene)-9,10-dihydro-4H-1-thiabenzo[f]azulen-2-yl]acrylate]",47
19,"CCOC(=O)Cc1ccc2c(c1)C(=C1CCN(C)CC1)c1ccsc1CC2 [Compound 106, Ethyl[4-(1-methylpiperidin-4-ylidene)-9,10-dihydro-4H-1-thiabenzo[f]azulen-6-yl]acetate hydrochloride]",7.04
20,"CN1CCC(=C2c3ccccc3CCc3sc(C(=O)NC(C)(C)CO)cc32)CC1 [Compound 80, N-(2-Methyl-1-hydroxyprop-2-yl)-{[4-(1-methylpiperidin-4-ylidene)-9,10-dihydro-4H-1-thiabenzo[f]azulen-2-yl]}carboxamide]",69.9
21,"CON(C)C(=O)c1cc2c(s1)CCc1ccccc1C2=C1CCN(C)CC1 [Compound 84, N-Methyl-N-methoxy-{[4-(1-methylpiperidin-4-ylidene)-9,10-dihydro-4H-1-thiabenzo[f]azulen-2-yl]}carboxamide]",38.4
22,"CCOC(=O)Cc1ccc2c(c1)C(=C1CCN(C)CC1)c1sccc1CC2 [Compound 147, Ethyl[4-(1-methylpiperidin-4-ylidene)-9,10-dihydro-4H-3-thiabenzo[f]azulen-6-yl]acetate hydrochloride]",4.04
23,"CCOC(=O)c1cc2c(s1)C(=C1CCN(C)CC1)c1ccccc1OC2 [Compound 44, Ethyl[4-(1-methylpiperidin-4-ylidene)-4,10-dihydro-9-oxa-3-thiabenzo[f]azulen-2-yl]carboxylate hydrochloride]",19.2
24,"CCOC(=O)COCCN1CCC(=C2c3ccccc3CCc3sc(C(=O)OCC)cc32)CC1 [Compound 110, Ethyl {4-[1-(2-ethoxycarbonylmethoxyethyl)piperidin-4-ylidene]-9,10-dihydro-4H-1-thiabenzo[f]azulen-2-yl}carboxylate hydrochloride]",23.4
25,"CN1CCC(=C2c3cc(C(=O)O)ccc3CCc3ccsc32)CC1 [Compound 121, 4-(1-Methylpiperidin-4-ylidene)-9,10-dihydro-4H-3-thiabenzo[f]azulene-6-carboxylic acid]",94.7
26,"OCCc1ccc2c(c1)C(=C1CCN(CCO)CC1)c1sccc1CO2 [Compound 122, 2-{4-[1-(2-Hydroxyethyl)piperidin-4-ylidene]-4,10-dihydro-9-oxa-3-thiabenzo[f]azulen-6-yl}ethanol]",13.4
27,"C=CCNC(=O)c1cc2c(s1)CCc1ccccc1C2=C1CCN(C)CC1 [Compound 86, N-Allyl-{[4-(1-methylpiperidin-4-ylidene)-9,10-dihydro-4H-1-thiabenzo[f]azulen-2-yl]}carboxamide]",21.2
